The values below come from article PMC13538172, “Zonisamide nanodiamonds for brain targeting: A comprehensive study utilising in silico, in vitro, in vivo, and molecular investigation for successful nose-to-brain delivery for epilepsy management” (Drug Delivery and Translational Research, 2025).

Each structure is given as a SMILES string.

The test system of experiment [1] is experimentally induced TLE in rats. Put plainly: EEG and behavioural seizures in pilocarpine-induced temporal lobe epilepsy (TLE). It counts as in vivo, adult male Wistar albino rats. Conditions: intranasal 16 mg/kg/day of ZNS for 7 days. The procedure: (§1) Temporal lobe epilepsy (TLE) was induced in rats using the pilocarpine model according to the method of Arshad et al.. Prior to the experiment, rats were housed in plastic cages at October University for Modern Science and Arts under controlled environmental conditions (temperatures of 25°±3°C and 50% humidity) with free access to water and softened standard pellet chow. The rats were injected with pilocarpine (300 mg/kg; i.p.) to induce status epilepticus (SE). Atropine (1 mg/kg; i.p.) was injected 30 minutes before pilocarpine injection to antagonize the peripheral muscarinic activity. SE was defined using the modified Racine scale by observing seizure severity categorized as stages 4 and 5. […] The SE seizures were left to last for 3 hours to induce hippocampus damage, after which diazepam (10 mg/kg; i.p.) was injected to attenuate the seizures. Lubricant ophthalmic gel was applied with a cotton swab to each eye to prevent the corneas from drying out during the seizures. The rats were hydrated with sterile Ringer's lactate injections (1 mL, i.p.) for 3 days post-SE induction. Animal welfare assessments were conducted multiple times per day for several days after the induction of SE. The Pilocarpine-inducted rats began to develop spontaneous recurrent seizures (SRS) as a characteristic of TLE within 3 weeks, after which the treatments were injected for 7 days, and the in vivo pharmacodynamic investigation was conducted. […]
At the end of the experiment, SRS was monitored using a video recorder (6 hours/day) and scored according to the Racine scale. In addition, the brain activity was recorded using an electroencephalogram (EEG, powerlab module, which consists of Power-lab/8sp and Animal Bio-Amplifier, Australia). […]

The subject of experiment [2] is neuron-specific enolase (NSE). Kind of experiment: Serum NSE by ELISA in TLE rats. In kind it is in vivo. Conditions: compared to the TLE control rats; intranasal, 7 days. The procedure: as §1, with “induction.” for “induction. Animal welfare assessments were conducted multiple times per day for several days after the induction of SE. The Pilocarpine-inducted rats began to develop spontaneous recurrent seizures (SRS) as a characteristic of TLE within 3 weeks, after which the treatments were injected for 7 days, and the in vivo pharmacodynamic investigation was conducted.”
(§2) The serum levels of neuron-specific enolase (NSE), matrix metallopeptidase-9 (MMP-9), neurofilament light polypeptide (NEFL), and brain-derived neurotrophic factor (BDNF) were measured by ELISA technique using the following standard kits CAT no. […]
(In general: An ELISA detects its analyte on a solid surface through an enzyme-linked reagent.)

Experiment [3] deals with brain-derived neurotrophic factor (BDNF). Kind of experiment: Serum BDNF by ELISA in TLE rats. It counts as in vivo. The conditions noted are these: TLE control 22.1 ± 1.7, normal group 76.8 ± 6.1. The method, then:
as §1, with “induction.” for “induction. Animal welfare assessments were conducted multiple times per day for several days after the induction of SE. The Pilocarpine-inducted rats began to develop spontaneous recurrent seizures (SRS) as a characteristic of TLE within 3 weeks, after which the treatments were injected for 7 days, and the in vivo pharmacodynamic investigation was conducted.”
as §2

For another experiment, the system named is Sirtuin 1 (Sirt-1). Put plainly: Hippocampal SIRT-1 expression by quantitative RT-PCR in TLE rats. It counts as in vivo. Conditions: relative quantitation 2-∆∆Ct; TLE control 0.16 fold of normal. The method, then:
Temporal lobe epilepsy (TLE) was induced in rats using the pilocarpine model according to the method of […] et al.. Prior to the experiment, rats were housed in plastic cages at October University for Modern Science and Arts under controlled environmental conditions (temperatures of 25°±3°C and 50% humidity) with free access to water and softened standard pellet chow. The rats were injected with pilocarpine (300 mg/kg; i.p.) to induce status epilepticus (SE). Atropine (1 mg/kg; i.p.) was injected 30 minutes before pilocarpine injection to antagonize the peripheral muscarinic activity. SE was defined using the modified Racine scale by observing seizure severity categorized as stages 4 and 5. […] For quantitative RT-PCR analysis of miR-199, Sirtuin 1 (Sirt-1) and long non-coding RNA of plasmacytoma variant translocation1 (LncRNA PVT-1), RNA was isolated from the brain hippocampus tissue with direct-zol RNA Miniprep Plus (CAT no. R2072) and reverse-transcribed into cDNA with the reverse transcriptase (CAT no. 12594100) according to the manufacturer instructions. […] Quantitative reverse transcriptase PCR was performed using a Power SYBR Green PCR Master Mix (CFX96 Instrument; Bio-Rad, USA). The relative quantitation (RQ) of each target gene is quantified according to the 2-ΔΔCt method calculation.

In the case of `NS(=O)(=O)Cc1noc2ccccc12` [ZNS, Zonisamide], in experiment [1] (n = 8), the “maximum spike amplitude during the SRS” value came out at 0.4 ± 0.1 mV and the “mean duration of single SRS (epileptogenic ictal discharge in EEG)” value is 96.5 ± 2.9 s. In experiment [1] (video recording 6 hours per day), the “incidence of motor seizures per 6 h” value is recorded as 3.5 ± 0.5. In addition, the “decrease in serum level of NSE” value in experiment [2] came out at 30.6%. Besides, the “serum level of BDNF” value in experiment [3] worked out at 47.45 ± 1.9 pg/mL. Moreover, the “hippocampal SIRT-1 level” value in the experiment with Sirtuin 1 (Sirt-1) is given as 0.47 folds.
